Measured values as given in patent US8173682B2, “Substituted pyridones as inhibitors of poly(ADP-ribose) polymerase (PARP)” (Aventis Pharmaceuticals Inc., priority 2004, dated 2012).
Where a name gives a salt, the structure may show the parent alone.

What was measured:
[1] = system: intracellular synthesis of poly(ADP-ribose) in HL60 cells; assay: Cell-based PARP assay (poly(ADP-ribose) immunodetection in fixed cells); conditions: Homo sapiens, HL-60, overnight incubation with compound, serum-free media
Procedure: The following example illustrates the efficacy of the compounds of this invention in inhibiting the effects of PARP in a cell based assay.
Reagents: Media RMPI 1640+Glutamax: Gibco 61870-044); TBST/milk, TBST (Sigma T93039) containing 5% skimmed milk (Nestle Carnation nonfat dry milk)
HL60 cells at […] in serum free media are seeded into the wells of a 96-well plate at 100 μL/well. The plate is pre-incubated for 3 hr under normal tissue culture conditions. One hundred μL of serum-free media containing compound at 2× the required concentration in 0.6% DMSO are added (or 0.6% DMSO only to controls and blanks). The plate is incubated overnight under normal tissue culture conditions, then centrifuged at 190×g for 5 min at 4° C. to pellet cells. The media is carefully removed by aspiration, and the cells are incubated in 100 μL/well ice-cold 0.56% KCl for 2 min on ice. The plate is centrifuged as above to pellet cells, the KCl removed by aspiration, and 100 μL/well ice-cold methanol added. After 4 min on ice, methanol is removed by aspiration and the cells air-dried for 10-15 min at rt. The cells are washed with PBS×3, then washed with TBST/milk (1 wash, 5 min incubation at rt). The cells are incubated with 100 μL/well 0.25% Triton X 100 in PBS for 10 min at RT, then washed x# with PBS and ×1 with TBST. The cells are blocked for 1 hr with TBST/milk (200 μL/well) and then washed ×1 with TBST. The fixed cells are incubated with primary antibody (Calbiochem cat no. 528815) at 1:2000 dilution in TBST/milk (100 μL/well, overnight at 4 deg C.). The cells are washed with TBST (2 rinses, 1×15 min, 2×5 min at RT). The cells are incubated with secondary antibody (anti-rabbit Ig-biotin conjugate, Amersham RPN1004) in TBST/milk at 1:3500 dilution, 100 μL/well for 1 hr at RT. The cells are washed with TBST (2 rinses, 1×15 min, 2×5 min at RT). The cells are then incubated with 100 μL/well of 4-MUP (Sigma, M3168) in the dark for 4 hrs. The fluorescence is read using a plate reader (excitation at 360 nm, emission at 440 nm). To calculate compound effects, the fluorescence of the blank (no cells) is subtracted from all data. Fluorescence obtained with a standard cell-permeable potent inhibitor at 30 μM is subtracted from all other groups as this appears to represent a true blank. Compound effects can then be determined: a PARP inhibitor blocks the intracellular synthesis of poly(ADP-ribose), and results in a decreased reactivity (reduced final fluorescence) with primary antibody in the fixed and permeabilized cells.
The results obtained from this study are expressed as EC50 (median effective concentration of the test compound that was effective in preventing the cell death—expressed in micromolar (μM) concentration) for each of the tested compounds and are summarized in Table 2.

[2] = target: T1, recombinant human PARP (PARP1) (Homo sapiens, UniProt P09874); assay: PARP enzyme assay, Method A (radioactivity or 'ELISA' enzyme assay with partially purified enzyme); format: biochemical; conditions: recombinant human PARP preparation, radioactive or ELISA enzyme assay
T1 construct: Full length human PARP (PARP1) is assembled from PCR fragments; His6 tag with TEV site, from the pFastBac-HTb vector (own knowledge of the vector); made in house; host or cells: insect cells, baculovirus (Bac-to-Bac, Gibco-BRL)
T1 sequence (P09874 whole entry, the tested form may be a part): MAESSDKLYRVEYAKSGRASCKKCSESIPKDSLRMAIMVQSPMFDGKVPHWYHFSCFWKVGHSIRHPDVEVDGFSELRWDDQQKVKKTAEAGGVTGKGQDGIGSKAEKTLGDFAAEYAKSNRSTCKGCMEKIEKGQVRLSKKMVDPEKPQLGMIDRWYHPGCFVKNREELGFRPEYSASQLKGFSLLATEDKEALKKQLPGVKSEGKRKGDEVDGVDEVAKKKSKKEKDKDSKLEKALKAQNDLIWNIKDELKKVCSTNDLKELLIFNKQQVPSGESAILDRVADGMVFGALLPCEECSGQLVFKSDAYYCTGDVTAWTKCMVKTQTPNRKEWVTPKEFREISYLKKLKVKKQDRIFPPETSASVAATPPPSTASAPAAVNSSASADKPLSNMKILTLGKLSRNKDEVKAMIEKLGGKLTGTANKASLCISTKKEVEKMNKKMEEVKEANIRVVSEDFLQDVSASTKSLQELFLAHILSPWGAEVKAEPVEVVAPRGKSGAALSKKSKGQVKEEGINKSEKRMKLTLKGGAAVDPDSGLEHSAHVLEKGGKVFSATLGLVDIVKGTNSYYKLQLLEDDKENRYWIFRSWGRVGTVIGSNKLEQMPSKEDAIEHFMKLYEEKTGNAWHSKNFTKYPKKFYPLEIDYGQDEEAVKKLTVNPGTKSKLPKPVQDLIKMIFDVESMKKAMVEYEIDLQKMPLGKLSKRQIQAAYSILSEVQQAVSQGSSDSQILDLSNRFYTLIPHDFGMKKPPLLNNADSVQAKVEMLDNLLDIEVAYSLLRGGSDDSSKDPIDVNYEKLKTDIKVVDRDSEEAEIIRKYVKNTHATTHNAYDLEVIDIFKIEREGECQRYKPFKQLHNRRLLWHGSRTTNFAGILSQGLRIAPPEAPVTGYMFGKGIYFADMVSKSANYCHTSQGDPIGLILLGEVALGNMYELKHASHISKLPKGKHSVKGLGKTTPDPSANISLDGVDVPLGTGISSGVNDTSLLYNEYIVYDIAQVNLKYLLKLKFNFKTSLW
How it was run: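 Partially purified recombinant full-length His-tagged human PARP1, baculovirus-expressed. Radioactive format: 100 μg/mL sonicated DNA, 100 μg/mL histones, 100 mM Tris pH 8.0, 10 mM MgCl2, 200 μM labeled NAD, 10 min 37 °C or 60 min RT, TCA-precipitated counts. ELISA format: 250 μM NAD plus biotin-NAD on histone plates, TMB A450.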

EC50 [1]	IC50 [2]	SMILES
1430 nM	0.39 µM	CCc1cc(-c2ccc(CNCC3CCCCC3)s2)c(C)[nH]c1=O [Example 143, 5-(5-Cyclohexylmethylaminomethylthiophen-2-yl)-3-ethyl-6-methyl-1H-pyridin-2-one hydrochloride]
970 nM	0.24 µM	CCc1cc(-c2ccc(CNCCOc3ccccc3)s2)c(C)[nH]c1=O [Example 146, 3-Ethyl-6-methyl-5-{5-[(2-phenoxyethylamino)-methyl]thiophen-2-yl}-1H-pyridin-2-one hydrochloride]
520 nM	0.41 µM	CCc1cc(-c2ccc(CN3CCCCC3)s2)c(C)[nH]c1=O [Example 148, 3-ethyl-6-methyl-5-(5-piperidin-1-ylmethy-thiophen-2-yl)-1H-pyridin-2-one hydrochloride]
